Reference: article PMC11311998, “AR71, Histamine H3 Receptor Ligand—In Vitro and In Vivo Evaluation (Anti-Inflammatory Activity, Metabolic Stability, Toxicity, and Analgesic Action)” (International Journal of Molecular Sciences, 2024)
“And” between values parts separate entries of the source, which are not always exact repeats. Equal values may be shown once.

Experiments:
hH4R = target: hH4R; design: method as in PMID 36370200; settings: cited from earlier work
human astrocytes = experiment: viability of human astrocytes (MTT assay); assay type: cell-based; settings: for IC50: Homo sapiens, Astrocyte
Procedure: We investigated the effect of AR71 in a wide range of concentrations (0.78–100 μM) on the viability of human astrocyte cell lines after 2, 24, 48, and 72 h of incubation (Figure 6). Prolonged incubation of human astrocytes with AR71 caused a dose-dependent decrease in cell viability.
The astrocyte cell line from the human cerebral cortex was purchased from ScienCell Research Laboratories (San Diego, CA, USA; Cat no. 1800) and maintained according to the protocol recommended by the company (the ScienCell Research Laboratories’ protocol).
The colorimetric MTT assay using 3-(4,5-dimethylthiazol-2-yl)-2,5-diphenyltetrazolium bromide (MTT; Sigma-Aldrich Chemical Co. Ltd., Saint Louis, MO, USA) was used for evaluation of astrocytes viability. The experiment was carried out following the procedure described in detail previously. Astrocytes were seeded onto 96-well plates at a final density of 10 × 10^3 cells/well. Following 24 h of culture, the cells were treated with AR71 (0.78–100 μM) for […], 24, 48, or 72 h. After the respective incubation periods, MTT solution was added to the cell culture for another four hours. Absorbance was measured at 570 nm using a BioTek EL 800× microplate reader (BioTek, Winooski, VT, USA), with the value directly proportional to the number of viable cells. Cell viability was calculated by the following formula: Viability [%] = (A/AC) × 100%, where A represents the absorbance of the investigated sample and AC represents the absorbance of the negative control (untreated cells). The positive control (vehicle) was 0.1% DMSO.

SH-SY5Y cells = experiment: mitochondrial membrane potential (JC-10); assay type: cell-based, human; settings: 0.78 μM
Procedure: Neurotoxin-like rotenone induces oxidative stress inside cells that might influence mitochondrial membrane potential (MMP). Maintaining unaffected MMP is essential for neuroprotection. In our study, we tested the effect of AR71 on MMP in the presence and absence of rotenone.
Next, the effect of AR71 (0.78 μM) when co-treated with rotenone was tested; 1 μM carbonyl cyanide m-chlorophenylhydrazone (CCCP) was used as a positive control.
The MMP was measured by a commercially available kit (Sigma Aldrich, MAK159, for live cells) that utilises a cationic, lipophilic dye JC-10. It allows for ratiometric analysis of mitochondrial membrane potential, where a shift from orange (λEX/λEM: 540 nm/590 nm) to green fluorescence (λEX/λEM: 490 nm/525 nm) is indicative of compromised mitochondria. For this assay, the SH-SY5Y cells (1 × 10^4 cells/well) were seeded in a black-sided clear bottom 96-well plate (Thermo Scientific Nunclon^TM Delta Surface no. 137101, Denmark) in a complete culture medium. First, to choose the optimal concentration of rotenone in this assay, a dose–response effect of rotenone (0.05, 0.5, 5, 50 μM) was studied. Next, the cells were pre-treated with AR71 (0.78 μM) for 1 h before rotenone stimulation (50 μM) for another 3 h. […] The positive control was carbonyl cyanide m-chlorophenylhydrazone (CCCP; 1 μM)—uncoupling agent on the proton gradient. After incubation, 50 μL/well of the JC-10 dye loading solution was added to each well with cells. The plate was incubated for 45 min in the incubator. Then, 50 μL/well of Assay Buffer B was added to each well, and the fluorescence was monitored immediately. The red/green fluorescence intensity ratio was used to calculate the results.

hH1R = target: hH1R; design: method as in PMID 36370200; settings: cited from earlier work
human H3R = target: human H3R; design: method as in PMID 36370200; settings: cited from earlier work
CCI-exposed mice = experiment: von Frey test in CCI neuropathic pain model; assay type: in vivo, mouse
Procedure: The effects of a single intraperitoneal (i.p.) injection of AR71 at doses of 5, 10, and 20 mg/kg on mechanical (von Frey test) and thermal (cold plate and tail flick tests) stimulus were evaluated on day 14 following sciatic nerve injury (Figure 15). There were seven to eight animals per group. All these tests were performed in three time series after the administration of the compound. In the case of the von Frey test—after 30, 90, and 180 min; the cold plate test—after 35, 95, and 185 min; and the tail flick test—after 40, 100, and 190 min.
The mice were randomly divided into four experimental groups. One group received a vehicle treatment (10% DMSO/10%(2-Hydroxypropyl)-β-cyclodextrin/water for injection, i.p.), while the other three groups were administered with AR71 at doses of 5, 10, or 20 mg/kg of body weight (b.w.), i.p. Baseline measurements for all tests were conducted before the compounds were injected, and the results are presented as percentages of the maximal possible effect (% MPE). […] All data from behavioural tests were analysed using a one-way ANOVA with Bonferroni’s multiple comparison post hoc test.
The model of chronic constriction injury (CCI) to the sciatic nerve was established according to Bennett and Xie. The surgical method was performed under isoflurate anaesthesia (2% isoflurane in 100% oxygen with a flow of 1.5 L/min). Below the right hipbone, a small incision was performed, and three ligatures (4/0 silk) around the sciatic nerve were made (with 1 mm spacing) until a brief twitch in the respective hind limb was observed. The CCI procedure leads to hypersensitivity to mechanical and thermal stimuli. Behavioural tests were performed on day 14 after the injury. AR71 was dissolved in 10% DMSO/10% (2-Hydroxypropyl)-β-cyclodextrin/water for injection and was given i.p. at doses of 5, 10, and 20 mg/kg of body weight (injection volume 10 mL/kg of bw). The control group received the vehicle (10% DMSO/10% (2-Hydroxypropyl)-β-cyclodextrin/water for injection).
Behavioural experiments were performed between 8:00 a.m. and 2:00 p.m. […]

SMILES: COc1cc(/C=C/C(=O)c2ccc(OCCCN3CCCCC3)cc2)cc(OC)c1OC [AR71, (E)-3-(3,4,5-trimethoxyphenyl)-1-(4-(3-(piperidin-1-yl)propoxy)phenyl)prop-2-en-1-one]
- Ki (hH4R): 2.81 µM and > 2.5 µM
- effect on astrocyte viability at low concentrations (human astrocytes; 1.56 and 3.12 μM, 48 h, did not persist after 72 h): statistically significant proliferation
- IC50 (human astrocytes; 2 h incubation): 41.3 µM
- IC50 (human astrocytes; 24 h incubation): 20.2 µM
- IC50 (human astrocytes; 48 h incubation): 12.5 µM
- IC50 (human astrocytes; 72 h incubation): 9.69 µM
- effect on MMP of compound alone (SH-SY5Y cells): did not affect mitochondrial membrane potential
- minimisation of loss of MMP compared with rotenone-treated cells (SH-SY5Y cells; 1 h pre-treatment, then rotenone 50 μM for 3 h): 20%
- Ki (hH1R): 2.7 µM and > 2.5 µM
- Ki (human H3R): 0.024 µM
- effect in von Frey test vs vehicle (CCI-exposed mice; 10 mg/kg i.p., 30 min after injection, p < 0.05): significant pain-relieving effects
- effect in von Frey test vs vehicle (CCI-exposed mice; 20 mg/kg i.p., 90 and 180 min after injection (p < 0.001 and p < 0.01), lower doses not effective): increased withdrawal thresholds
- effect in von Frey test vs vehicle (CCI-exposed mice; 20 mg/kg i.p., 30 min after injection, p < 0.001): significant pain-relieving effects
